# In patent publication US9670170B2, “Resorufin derivatives for treatment of oxidative stress disorders” (BioElectron Technology Corporation, priority 2013, dated 2017):
# System: FRDA fibroblasts
# Assay: Rescue of BSO-stressed human dermal fibroblasts from Friedreich's Ataxia patients (Calcein AM viability)
# Format: cell-based
# Conditions: Homo sapiens, GM04078, 48 h, read-out: Ec50 Average
# Procedure: An initial screen was performed to identify compounds effective for the amelioration of redox disorders. Test samples, 4 reference compounds (idebenone, decylubiquinone, Trolox and alpha-tocopherol), and solvent controls were tested for their ability to rescue FRDA fibroblasts stressed by addition of L-buthionine-(S,R)-sulfoximine (BSO), as described in Jauslin et al., Hum. Mol. Genet. 11(24):3055 (2002), Jauslin et al., FASEB J. 17:1972-4 (2003), and International Patent Application WO 2004/003565. […] This specific BSO-mediated cell death can be prevented by administration of antioxidants or molecules involved in the antioxidant pathway, such as alpha-tocopherol, selenium, or small molecule glutathione peroxidase mimetics. However, antioxidants differ in their potency, i.e. the concentration at which they are able to rescue BSO-stressed FRDA fibroblasts.
# MEM (a medium enriched in amino acids and vitamins, catalog no. 1-31F24-I) and Medium 199 (M199, catalog no. 1-21F22-I) with Earle's Balanced Salts, without phenol red, were purchased from Bioconcept. Fetal Calf Serum was obtained from PAA Laboratories. Basic fibroblast growth factor and epidermal growth factor were purchased from PeproTech. Penicillin-streptomycin-glutamine mix, L-buthionine (S,R)-sulfoximine, (+)-alpha-tocopherol, decylubiquinone, and insulin from bovine pancreas were purchased from Sigma. Trolox (6-Hydroxy-2,5,7,8-tetramethylchromane-2-carboxylic acid) was obtained from Fluka. Idebenone was obtained from Chemo Iberica. Calcein AM was purchased from Anaspec. Cell culture medium was made by combining 125 ml M199 EBS, 50 ml Fetal Calf Serum, 100 U/ml penicillin, 100 microgram/ml streptomycin, 2 mM glutamine, 10 microgram/ml insulin, 10 ng/ml EGF, and 10 ng/ml bFGF; MEM EBS was added to make the volume up to 500 ml. A 10 mM BSO solution was prepared by dissolving 444 mg BSO in 200 ml of medium (Invitrogen, Carlsbad, Ca.) with subsequent filter-sterilization. During the course of the experiments, this solution was stored at +4° C. The cells were obtained from the Coriell Cell Repositories (Camden, N.J.; repository number GM04078) and grown in 10 cm tissue culture plates. Every third day, they were split at a 1:3 ratio.
# The test samples were supplied in 1.5 ml glass vials. The compounds were diluted with DMSO, ethanol or PBS to result in a 5 mM stock solution. Once dissolved, they were stored at −20° C. Reference antioxidants (idebenone, decylubiquinone, alpha-tocopherol and Trolox) were dissolved in DMSO.
# Test samples were screened according to the following protocol:
# A culture with FRDA fibroblasts was started from a 1 ml vial with approximately 500,000 cells stored in liquid nitrogen. Cells were propagated in 10 cm cell culture dishes by splitting every third day in a ratio of 1:3 until nine plates were available. Once confluent, fibroblasts were harvested. For 54 micro titer plates (96 well-MTP) a total of 14.3 million cells (passage eight) were re-suspended in 480 ml medium, corresponding to 100 microliters medium with 3,000 cells/well. The remaining cells were distributed in 10 cm cell culture plates (500,000 cells/plate) for propagation. The plates were incubated overnight at 37° C. in a atmosphere with 95% humidity and 5% CO2 to allow attachment of the cells to the culture plate.
# 10% DMSO (242.5 microliters) was added to a well of the microtiter plate. The test compounds were unfrozen, and 7.5 microliters of a 5 mM stock solution was dissolved in the well containing 242.5 microliters of 10% DMSO, resulting in a 150 micromolar master solution. Serial dilutions from the master solution were made. The period between the single dilution steps was kept as short as possible (generally less than 30 seconds). At least 4 hours after attachment into MTP, cells were then treated with the various compound dilutions.
# Plates were kept overnight in the cell culture incubator. […]
row,SMILES,EC50 [nM]
1,CCOc1ccc2nc3ccc(=O)cc-3oc2c1 [Compound 5],0.8
2,COc1ccc2nc3ccc(=O)cc-3oc2c1 [Compound 3],1
3,O=c1ccc2nc3ccc(OCc4ccccc4)cc3oc-2c1 [Compound 1],1
4,O=c1ccc2nc3ccc(O)cc3oc-2c1 [Compound 4],84

# Same assay, conditions: Homo sapiens; compounds of the invention; FRDA fibroblasts (GM04078), 1 mM BSO, 48 h; tested three times; read-out: Ec50 Average
row,SMILES,EC50 [nM]
1,Cc1cc(C)c2nc3c(C)c(C)c(=O)c(C)c-3oc2c1 [Compound 20],26
2,Cc1ccc2nc3c(C)c(C)c(=O)c(C)c-3oc2c1 [Compound 11],5
3,COCCNC(=O)c1ccc2nc3c(C)c(C)c(=O)c(C)c-3oc2c1 [Compound 12],6
4,COC(=O)c1ccc2nc3c(C)c(C)c(=O)c(C)c-3oc2c1 [Compound 21],50
5,Cc1ccc2nc3c(C)c(C)c(=O)c(C)c-3oc2c1C [Compound 9],4
6,O=c1ccc2nc3ccc(O[C@@H]4O[C@H](CO)[C@H](O)[C@H](O)[C@H]4O)cc3oc-2c1 [Compound 14],16
7,Cc1cc2oc3c(C)c(=O)c(C)c(C)c-3nc2cc1S(C)(=O)=O [Compound 23],234
8,Cc1c2nc3ccc(C(=O)NCCCO)cc3oc-2c(C)c(=O)c1C [Compound 10],5
9,COCCOCCOCCOCCNC(=O)c1ccc2nc3c(C)c(C)c(=O)c(C)c-3oc2c1 [Compound 15],17
10,Cc1c2nc3cc(C(F)(F)F)ccc3oc-2c(C)c(=O)c1C [Compound 22],54
11,COc1c2nc3ccc(C)cc3oc-2c(C)c(=O)c1OC [Compound 6],2
12,Cc1c2nc3ccc(C(=O)NCCN4CCOCC4)cc3oc-2c(C)c(=O)c1C [Compound 8],3
13,COCCN(C)C(=O)c1ccc2nc3c(C)c(C)c(=O)c(C)c-3oc2c1 [Compound 7],2
14,Cc1c2nc3ccc(C(F)(F)F)cc3oc-2c(C)c(=O)c1C [Compound 17],23
15,COc1ccc2nc3c(OC)c(OC)c(=O)c(C)c-3oc2c1 [Compound 13],12
16,Cc1c2nc3ccc(C(=O)NCCc4ccccc4)cc3oc-2c(C)c(=O)c1C [Compound 19],25

# Same assay, conditions: control compounds; FRDA fibroblasts (GM04078), 1 mM BSO, 48 h; average of three values; read-out: EC50 Average
row,SMILES,EC50 [nM]
1,"Cc1c(C)c2c(c(C)c1O)CC[C@@](C)(CCC[C@H](C)CCC[C@H](C)CCCC(C)C)O2 [alpha-tocopherol, reference compound]",300

# Same assay, conditions: control compounds; FRDA fibroblasts (GM04078), 1 mM BSO, 48 h; first of three experiments; read-out: EC50 Value 1
row,SMILES,EC50 [nM]
1,"Cc1c(C)c2c(c(C)c1O)CC[C@@](C)(CCC[C@H](C)CCC[C@H](C)CCCC(C)C)O2 [alpha-tocopherol, reference compound]",400

# Same assay, conditions: control compounds; FRDA fibroblasts (GM04078), 1 mM BSO, 48 h; second of three experiments; read-out: EC50 Value 2
row,SMILES,EC50 [nM]
1,"Cc1c(C)c2c(c(C)c1O)CC[C@@](C)(CCC[C@H](C)CCC[C@H](C)CCCC(C)C)O2 [alpha-tocopherol, reference compound]",150

# Same assay, conditions: control compounds; FRDA fibroblasts (GM04078), 1 mM BSO, 48 h; third of three experiments; read-out: EC50 Value 3
row,SMILES,EC50 [nM]
1,"Cc1c(C)c2c(c(C)c1O)CC[C@@](C)(CCC[C@H](C)CCC[C@H](C)CCCC(C)C)O2 [alpha-tocopherol, reference compound]",350
